{"source": "patent US20010027177A1", "about": "“Pharmaceutical composition containing a small or medium size peptide” (priority 2000, published 2001)", "origin": "cited, not measured here", "key": {"[1]": {"conditions": "solutions free from preservative; polystyrene, polypropylene and glass tubes; 24 hours at room temperature"}, "[2]": {"conditions": "adsorption to glass bottles and plastic tubing used in giving sets"}}, "data": [{"molecule": "NC(=O)CC[C@@H]1NC(=O)[C@H](Cc2ccccc2)NC(=O)[C@H](Cc2ccc(O)cc2)NC(=O)CCSSC[C@@H](C(=O)N2CCC[C@H]2C(=O)N[C@H](CCCN=C(N)N)C(=O)NCC(N)=O)NC(=O)[C@H](CC(N)=O)NC1=O", "note": "[desmopressin, 1-deamino-8-D-arginin-vasopressin]", "values": [{"measurement": "loss of active principle because of adsorption by the walls", "setting": "[1]", "value": "lose about the half of active principle"}]}, {"molecule": "benzalkonium chloride", "values": [{"measurement": "effect on nasal ciliar motility", "setting": "nasal ciliar motility", "value": "irreversible suppression of the nasal ciliar motility"}]}, {"molecule": "insulin: peptide drug cited for adsorption to glass bottles and plastic tubing", "values": [{"measurement": "losses of activity/potency because of adsorption", "setting": "[2]", "value": "≤ 78.8", "unit": "%"}]}]}
